Usually EC50 stands for the midpoint of the concentration-response curve.

Molecules are shown by their SMILES.

This is an account of results in paper PMC10373739, “The AKT inhibitor, MK-2206, attenuates ABCG2-mediated drug resistance in lung and colon cancer cells” (Frontiers in Pharmacology, 2023).

For this experiment, the target named is T1, ABCG2 transporter (Homo sapiens, UniProt Q9UNQ0).
T1 sequence (Q9UNQ0 1-655): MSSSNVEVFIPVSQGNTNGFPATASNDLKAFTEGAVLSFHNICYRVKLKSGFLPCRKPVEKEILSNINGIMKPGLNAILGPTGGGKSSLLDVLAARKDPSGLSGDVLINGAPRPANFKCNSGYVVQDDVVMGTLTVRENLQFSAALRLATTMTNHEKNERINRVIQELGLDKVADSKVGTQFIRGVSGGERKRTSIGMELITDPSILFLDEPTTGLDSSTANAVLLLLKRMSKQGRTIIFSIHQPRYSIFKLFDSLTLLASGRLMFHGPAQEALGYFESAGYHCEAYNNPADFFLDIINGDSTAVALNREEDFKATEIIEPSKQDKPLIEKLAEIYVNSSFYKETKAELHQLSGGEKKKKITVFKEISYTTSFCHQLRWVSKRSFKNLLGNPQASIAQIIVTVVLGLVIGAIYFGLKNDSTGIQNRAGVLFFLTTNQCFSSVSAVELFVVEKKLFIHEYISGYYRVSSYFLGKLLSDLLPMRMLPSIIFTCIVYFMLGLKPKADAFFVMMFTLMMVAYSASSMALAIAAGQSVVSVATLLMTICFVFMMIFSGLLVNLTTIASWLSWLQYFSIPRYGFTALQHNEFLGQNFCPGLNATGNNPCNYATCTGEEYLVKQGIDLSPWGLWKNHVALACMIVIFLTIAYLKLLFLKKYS
Put plainly: vanadate-sensitive ATPase assay (stimulation of basal activity) in ABCG2 membrane vesicles from High Five insect cells. Format: biochemical.

In turn, `NC1(c2ccc(-c3nc4ccn5c(=O)[nH]nc5c4cc3-c3ccccc3)cc2)CCC1` [MK-2206] registered an EC50 of 460 nM.
